Patent US7320879B2, “Method of determining site-specificity and kit therefor” (Biacore AB, priority 2002, dated 2008)

Assays:
[1] = biological target: T1, HSA (Homo sapiens, UniProt P02768); conditions: known site specificity of reference compounds (crystallography studies); cited from earlier work
T1 construct: purchased Sigma A-4327

[2] = biological target: T1, HSA; experiment: SPR (BIACORE S51) competition assay for HSA-binding site specificity, dissociation-phase response of mixtures; conditions: for effect of additional reference compounds on dissociation response of S1 on HSA: S1 constant 0.1 μM, reference 0-50 μM, d2 report point, FIG. 6
[3] = tested on: protein kinase (C-terminal His-tag); experiment: SPR binding profiles of binders against captured protein kinase, single concentration; conditions: 10 μM ATP; FIG. 8
Excerpt: A BIACORE® S51 instrument (Biacore AB, Uppsala, Sweden) was used. This instrument has two Y-type flow cells which allow a dual flow of fluids over a sensor chip surface, so-called hydrodynamic addressing, as described in, for example, EP-B1-1021703 (the disclosure of which is incorporated by reference herein). The instrument uses three parallel detection spots on the sensor chip. As sensor chip was used Series S Sensor Chip CM5 (Biacore AB, Uppsala, Sweden) which has a gold-coated surface with a covalently linked carboxymethyl-modified dextran polymer hydrogel. The output from the instrument is a “sensorgram” which is a plot of detector response (measured in “resonance units”, RU) as a function of time. An increase of 1000 RU corresponds to an increase of mass on the sensor surface of approximately 1 ng/mm^2.
100 μg/ml of Penta-His™ antibody, BSA-free (Qiagen, Venlo, Netherlands) in 0.15 M NaCl was diluted to 30 μg/ml in 10 mM sodium acetate buffer pH 5.0 and immobilized on a Series S Sensor Chip CM5 by amine coupling according to the manufacturer's instructions. The contact time was 10 min, the flow rate was 10 μl/min, and 10 mM PBS was used as running buffer. A little less than 12000 RU of antibody were immobilized. […]

T1 sequence (P02768 25-609): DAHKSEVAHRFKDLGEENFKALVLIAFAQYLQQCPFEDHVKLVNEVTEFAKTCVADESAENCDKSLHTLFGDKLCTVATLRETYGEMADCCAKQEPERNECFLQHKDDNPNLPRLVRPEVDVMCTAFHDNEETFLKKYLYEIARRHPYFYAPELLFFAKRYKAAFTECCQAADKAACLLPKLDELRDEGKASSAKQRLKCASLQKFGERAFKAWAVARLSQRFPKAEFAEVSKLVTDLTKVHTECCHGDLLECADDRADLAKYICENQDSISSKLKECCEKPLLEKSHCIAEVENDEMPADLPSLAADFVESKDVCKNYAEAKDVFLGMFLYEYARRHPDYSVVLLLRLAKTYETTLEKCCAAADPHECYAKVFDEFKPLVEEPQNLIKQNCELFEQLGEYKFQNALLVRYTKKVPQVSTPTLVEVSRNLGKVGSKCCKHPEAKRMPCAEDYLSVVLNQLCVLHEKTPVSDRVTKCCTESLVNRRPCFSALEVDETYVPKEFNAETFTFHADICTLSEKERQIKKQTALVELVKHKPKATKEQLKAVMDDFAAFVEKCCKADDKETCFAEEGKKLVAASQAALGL

SMILES: O=C1NC(=O)C(c2ccccc2)(c2ccccc2)N1 [phenyloin]
- known HSA-binding site [1]: site II
- effect of additional reference compounds on dissociation response of S1 on HSA [2]: follow the behaviour of warfarin and naproxen respectively

SMILES: C[C@H]1O[C@@H](O[C@H]2[C@@H](O)C[C@H](O[C@H]3[C@@H](O)C[C@H](O[C@H]4CC[C@@]5(C)[C@H](CC[C@@H]6[C@@H]5CC[C@]5(C)[C@@H](C7=CC(=O)OC7)CC[C@]65O)C4)O[C@@H]3C)O[C@@H]2C)C[C@H](O)[C@@H]1O [digitoxin]
- effect of the reference compound on binding/dissociation phase of S1 on HSA [2]: does not seem to affect the dissociation phase much

SMILES: Nc1ncnc2c1ncn2[C@@H]1O[C@H](COP(=O)(O)OP(=O)(O)OP(=O)(O)O)[C@@H](O)[C@H]1O [ATP, adenosine triphosphate]
- association/dissociation profile on the protein kinase [3]: very rapid binding and dissociation profile

SMILES: COc1cc(NS(=O)(=O)c2ccc(N)cc2)nc(OC)n1 [sulfadimethoxine]
- known HSA-binding site [1]: site I
- effect of additional reference compounds on dissociation response of S1 on HSA [2]: deviates from the behaviour of warfarin
